Results reported in patent US5840917A, “Phosphorylamides, their preparation and use” (Takeda Chemical Industries, Ltd., priority 1995, dated 1998).
pIC50: −log10 of the molar value.

target: T1, Helicobacter pylori-derived urease (Helicobacter pylori, UniProt P69996); assay: Screening of urease inhibitors (ammonia yield from urea); assay type: biochemical
T1 construct: an urease solution prepared from Helicobacter pylori; endogenous in cells
Description: Screening of Urease Inhibitors
One hundred (100) μl of 100 mM Bis-Tris buffer (pH 6.5) and 60 μl of an urease solution prepared from Helicobacter pylori were added to 20 μl of a test drug dissolved in 0.1% dimethylformamide solution. The mixture was incubated at room temperature for 30 minutes, and then 20 μl of 100 mM urea was added. The mixture was kept at room temperature for 10 minutes, and then the yielded ammonia in the incubation mixture was measured using a commercial test kit (Ammonia Test Wako®; Wako Pure Chemical). The percent inhibition against the yield of ammonia in the solvent addition group was calculated to obtain the IC50 value.

T1 sequence (P69996 whole entry, looked up): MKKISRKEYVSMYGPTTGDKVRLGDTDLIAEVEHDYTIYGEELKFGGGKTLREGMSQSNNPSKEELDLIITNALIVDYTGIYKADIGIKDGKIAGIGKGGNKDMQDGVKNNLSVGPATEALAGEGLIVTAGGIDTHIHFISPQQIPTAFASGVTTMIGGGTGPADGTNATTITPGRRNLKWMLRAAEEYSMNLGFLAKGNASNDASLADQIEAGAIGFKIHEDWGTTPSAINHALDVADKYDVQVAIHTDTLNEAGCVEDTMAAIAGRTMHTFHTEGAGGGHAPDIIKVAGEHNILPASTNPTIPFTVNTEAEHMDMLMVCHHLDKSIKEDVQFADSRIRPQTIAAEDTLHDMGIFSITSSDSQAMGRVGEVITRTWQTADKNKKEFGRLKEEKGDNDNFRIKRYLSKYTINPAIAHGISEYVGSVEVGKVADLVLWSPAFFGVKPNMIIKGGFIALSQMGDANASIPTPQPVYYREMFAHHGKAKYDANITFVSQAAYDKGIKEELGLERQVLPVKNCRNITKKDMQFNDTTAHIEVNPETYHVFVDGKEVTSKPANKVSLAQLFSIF

Question: How did the pIC50 turn out when `NP(N)(=O)NC(=O)c1ccc([N+](=O)[O-])s1` [Example 10, N-(Diaminophosphinyl)-5-nitro-thiophenecarboxamide] was run?
Answer: 8.44

Question: How did the pIC50 turn out when `COc1ccc(C(=O)NP(N)(N)=O)s1` [Example 22, N-(Diaminophosphinyl)-5-methoxy-2-thiophenecarboxamide] was run?
Answer: 7.92

Question: `Cc1cscc1C(=O)NP(N)(N)=O` [Example 85, N-(Diaminophosphinyl)-4-methyl-3-thiophenecarboxamide] was tested. Which pIC50 did it give?
Answer: 8.66

Question: With `COc1ccc(OCC(=O)NP(N)(N)=O)cc1` [Example 53, N-(Diaminophosphinyl)-4-methoxyphenoxyacetamide] as the compound, how does the pIC50 read?
Answer: 8.10

Question: How did the pIC50 turn out when `NP(N)(=O)NC(=O)COc1cccc(Cl)c1` [Example 58, N-(Diaminophosphinyl)-3-chlorophenoxyacetamide] was run?
Answer: 8.52

Question: `NP(N)(=O)NC(=O)CCc1ccc(F)cc1` [Reference Example 38, N-(Diaminophosphinyl)-3-(4-fluorophenyl)propionamide] was tested. Which pIC50 did it give?
Answer: 8.01

Question: With `Cc1sc(Cl)cc1C(=O)NP(N)(N)=O` [Example 33, N-(Diaminophosphinyl)-5-chloro-2-methyl-3-thiophenecarboxamide] as the compound, how does the pIC50 read?
Answer: 8.72

Question: `NP(N)(=O)NC(=O)c1ccc(Br)s1` [Example 6, N-(Diaminophosphinyl)-5-bromo-2-thiophenecarboxamide] was tested. Which pIC50 did it give?
Answer: 8.46

Question: With `NP(N)(=O)NC(=O)c1cccc(Cl)c1` [compound 27, N-(Diaminophosphinyl)-3-chlorobenzamide] as the compound, how does the pIC50 read?
Answer: 8.41

Question: `N#Cc1ccc(C=CC(=O)NP(N)(N)=O)cc1` [compound 32, N-(Diaminophosphinyl)-4-cyanocinnamamide] was tested. Which pIC50 did it give?
Answer: 7.85

Question: `NP(N)(=O)NC(=O)CSc1nc2cc(Cl)ccc2s1` [Example 65, N-(Diaminophosphinyl)-5-chloro-2-benzothiazolylthioacetamide] was tested. Which pIC50 did it give?
Answer: 8.64

Question: With `NP(N)(=O)NC(=O)c1c(F)cccc1F` [Reference Example 9, N-(Diaminophosphinyl)-2,6-difluorobenzamide] as the compound, how does the pIC50 read?
Answer: 8.01

Question: With `COc1csc(C(=O)NP(N)(N)=O)c1` [Example 24, N-(Diaminophosphinyl)-4-methoxy-2-thiophenecarboxamide] as the compound, how does the pIC50 read?
Answer: 8.04

Question: With `NP(N)(=O)NC(=O)C=Cc1ccc(Cl)cc1` [compound 31, N-(Diaminophosphinyl)-4-chlorocinnamamide] as the compound, how does the pIC50 read?
Answer: 7.15

Question: How did the pIC50 turn out when `CS(=O)(=O)c1ccc(C(=O)NP(N)(N)=O)s1` [Example 18, N-(Diaminophosphinyl)-5-methanesulfonyl-2-thiophenecarboxamide] was run?
Answer: 7.96

Question: `NP(N)(=O)NC(=O)CSc1ccccc1` [Example 61, N-(Diaminophosphinyl)-phenylthioacetamide] was tested. Which pIC50 did it give?
Answer: 8.55

Question: How did the pIC50 turn out when `NP(N)(=O)NC(=O)c1nc2ccccc2s1` [Example 70, N-(Diaminophosphinyl)-2-benzothiazolecarboxamide] was run?
Answer: 7.89

Question: `NP(N)(=O)NC(=O)c1cc(Br)sc1Cl` [Example 86, N-(Diaminophosphinyl)-5-bromo-2-chloro-3-thiophenecarboxamide] was tested. Which pIC50 did it give?
Answer: 9.05

Question: How did the pIC50 turn out when `NP(N)(=O)NC(=O)c1cc2ccccc2o1` [Example 67, N-(Diaminophosphinyl)-2-benzofurancarboxamide] was run?
Answer: 8.21

Question: How did the pIC50 turn out when `NP(N)(=O)NC(=O)Cn1cnc2ccccc21` [Example 83, N-(Diaminophosphinyl)-1-benzimidazolylacetamide] was run?
Answer: 8.15

Question: How did the pIC50 turn out when `NP(N)(=O)NC(=O)c1cscc1Br` [Example 37, N-(Diaminophosphinyl)-4-bromo-3-thiophenecarboxamide] was run?
Answer: 8.74

Question: How did the pIC50 turn out when `NP(N)(=O)NC(=O)C=Cc1cccs1` [Example 78, N-(Diaminophosphinyl)-3-(2-thienyl)propenamide] was run?
Answer: 8.33

Question: With `NP(N)(=O)NC(=O)c1cc(F)cc(F)c1` [compound 21, N-(Diaminophosphinyl)-3,5-difluorobenzamide] as the compound, how does the pIC50 read?
Answer: 8.10

Question: With `N#Cc1ccc(OCC(=O)NP(N)(N)=O)cc1` [Example 57, N-(Diaminophosphinyl)-4-cyanophenoxyacetamide] as the compound, how does the pIC50 read?
Answer: 8.12

Question: With `NP(N)(=O)NC(=O)Cc1cccs1` [Example 80, N-(Diaminophosphinyl)-2-thienylacetamide] as the compound, how does the pIC50 read?
Answer: 8.36

Question: With `NP(N)(=O)NC(=O)Cc1ccccc1` [Reference Example 6, N-(Diaminophosphinyl)-phenylacetamide] as the compound, how does the pIC50 read?
Answer: 7.82

Question: `NP(N)(=O)NC(=O)c1cccs1` [Example 1, N-(Diaminophosphinyl)-2-thiophenecarboxamide] was tested. Which pIC50 did it give?
Answer: 8.92

Question: With `NP(N)(=O)NC(=O)c1cc(Cl)cs1` [Example 84, N-(Diaminophosphinyl)-4-chloro-2-thiophenecarboxamide] as the compound, how does the pIC50 read?
Answer: 8.60

Question: `NP(N)(=O)NC(=O)c1cc(Cl)c(Cl)s1` [Example 36, N-(Diaminophosphinyl)-4,5-dichloro-2-thiophenecarboxamide] was tested. Which pIC50 did it give?
Answer: 8.13

Question: How did the pIC50 turn out when `NP(N)(=O)NC(=O)c1sc2ccccc2c1Cl` [Example 74, N-(Diaminophosphinyl)-3-chloro-2-benzothiophenecarboxamide] was run?
Answer: 8.29

Question: With `NP(N)(=O)NC(=O)C=Cc1nc2cc(Cl)ccc2o1` [Example 72, N-(Diaminophosphinyl)-3-(5-chloro-2-benzoxazolyl)propenamide] as the compound, how does the pIC50 read?
Answer: 8.44

Question: With `NP(N)(=O)NC(=O)COc1ccc([N+](=O)[O-])cc1` [Example 52, N-(Diaminophosphinyl)-4-nitrophenoxyacetamide] as the compound, how does the pIC50 read?
Answer: 7.92

Question: With `NP(N)(=O)NC(=O)c1ccc(C(F)F)s1` [Example 13, N-(Diaminophosphinyl)-5-difluoromethyl-2-thiophenecarboxamide] as the compound, how does the pIC50 read?
Answer: 8.28

Question: With `NP(N)(=O)NC(=O)c1ccc(Br)o1` [Example 39, N-(Diaminophosphinyl)-5-bromo-2-furancarboxamide] as the compound, how does the pIC50 read?
Answer: 8.66

Question: `NP(N)(=O)NC(=O)c1cc(Br)c(Br)s1` [Example 7, N-(Diaminophosphinyl)-4,5-dibromo-2-thiophenecarboxamide] was tested. Which pIC50 did it give?
Answer: 8.37

Question: With `NP(N)(=O)NC(=O)CSc1ccc(F)cc1` [Example 62, N-(Diaminophosphinyl)-4-fluorophenylthioacetamide] as the compound, how does the pIC50 read?
Answer: 8.55

Question: With `Cc1ccsc1C(=O)NP(N)(N)=O` [Example 4, N-(Diaminophosphinyl)-3-methyl-2-thiophenecarboxamide] as the compound, how does the pIC50 read?
Answer: 8.17

Question: `NP(N)(=O)NC(=O)C=Cc1ccc(Cl)c(Cl)c1` [compound 36, N-(Diaminophosphinyl)-3,4-dichlorocinnamamide] was tested. Which pIC50 did it give?
Answer: 8.05

Question: How did the pIC50 turn out when `NP(N)(=O)NC(=O)Cc1noc2ccccc12` [Example 75, N-(Diaminophosphinyl)-3-benzisoxazolylacetamide] was run?
Answer: 7.66

Question: `NP(N)(=O)NC(=O)c1ccc(Cl)o1` [Example 42, N-(Diaminophosphinyl)-5-chloro-2-furancarboxamide] was tested. Which pIC50 did it give?
Answer: 8.64

Question: How did the pIC50 turn out when `COc1ccc(C(=O)NP(N)(N)=O)cc1` [Reference Example 12, N-(diaminophosphinyl)-4-methoxybenzamide] was run?
Answer: 7.36

Question: With `NP(N)(=O)NC(=O)c1cccc2ccccc12` [compound 26, N-(Diaminophosphinyl)-1-naphthalenecarboxamide] as the compound, how does the pIC50 read?
Answer: 7.89

Question: `Cc1ccoc1C(=O)NP(N)(N)=O` [Example 92, N-(Diaminophosphinyl)-3-methyl-2-furancarboxamide] was tested. Which pIC50 did it give?
Answer: 8.22

Question: How did the pIC50 turn out when `N#CC(=Cc1cccs1)C(=O)NP(N)(N)=O` [Example 79, N-(Diaminophosphinyl)-2-cyano-3-(2-thienyl)propenamide] was run?
Answer: 8.22
